Laboratory results reported in patent US10457703B2, “Bile acid derivatives as FXR/TGR5 agonists and methods of use thereof” (ENANTA PHARMACEUTICALS, INC., priority 2015, dated 2019).

Molecular target: human FXR (NR1H4) (Homo sapiens (Human), UniProt Q96RI1)
Experiment: Human FXR (NR1H4) Assay (Gal4 promoter driven luciferase reporter, Indigo Bioscience kit);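 on Efficacy (%): 100% equals the efficacy of CDCA; efficacy normalized to CDCA set as 100%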
Type: cell-based
Conditions: for EC50: Human FXR (NR1H4) Assay, potency ranges; for Emax: read-out: Efficacy (%)
Method in brief: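 CHO reporter cells expressing human FXR with an FXR-responsive luciferase reporter, treated with compound doses at 0.2% DMSO. Incubation lasted 22 h at 37 °C before luciferase detection reagent was added. Luminescence was then read.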

Sequence of human FXR (NR1H4) (Q96RI1 whole entry, the tested form may be a part): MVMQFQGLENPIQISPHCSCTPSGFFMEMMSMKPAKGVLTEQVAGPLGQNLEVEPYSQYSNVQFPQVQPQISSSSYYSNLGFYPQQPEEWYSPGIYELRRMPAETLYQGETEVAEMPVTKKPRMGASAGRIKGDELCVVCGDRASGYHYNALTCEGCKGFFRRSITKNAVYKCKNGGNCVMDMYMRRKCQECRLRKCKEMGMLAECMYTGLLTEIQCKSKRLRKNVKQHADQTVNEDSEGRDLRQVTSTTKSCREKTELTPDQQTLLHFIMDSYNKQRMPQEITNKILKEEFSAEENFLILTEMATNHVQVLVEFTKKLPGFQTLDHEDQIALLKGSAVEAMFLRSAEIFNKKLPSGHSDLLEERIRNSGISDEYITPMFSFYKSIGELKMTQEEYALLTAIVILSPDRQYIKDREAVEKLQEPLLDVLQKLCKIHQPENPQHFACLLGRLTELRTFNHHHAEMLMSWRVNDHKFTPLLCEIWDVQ

Structure (SMILES)	EC50	Emax
CC[C@H]1[C@@H](O)[C@@H]2[C@H](CC[C@]3(C)[C@@H]([C@H](C)COC(=O)NS(=O)(=O)c4ccc(-c5ccc(C(F)(F)F)cc5)s4)CC[C@@H]23)[C@@]2(C)CC[C@@H](O)C[C@@H]12 [Example 27]	0.1 to 1 µM	173%
CC[C@H]1[C@@H](O)[C@@H]2[C@H](CC[C@]3(C)[C@@H]([C@H](C)CCOC(=O)NCC(=O)O)CC[C@@H]23)[C@@]2(C)CC[C@@H](O)C[C@@H]12 [Example 157]	1 to 10 µM	178%
CC[C@H]1[C@@H](O)[C@@H]2[C@H](CC[C@]3(C)[C@@H]([C@H](C)CCOC(=O)N[C@H](C(=O)O)C(C)C)CC[C@@H]23)[C@@]2(C)CC[C@@H](O)C[C@@H]12 [Example 155]	0.1 to 1 µM	278%
CC[C@H]1[C@@H](O)[C@@H]2[C@H](CC[C@]3(C)[C@@H]([C@H](C)CCOC(=O)N(CCO)CCO)CC[C@@H]23)[C@@]2(C)CC[C@@H](O)C[C@@H]12 [Example 179]	0.1 to 1 µM	333%
CC[C@H]1[C@@H](O)[C@@H]2[C@H](CC[C@]3(C)[C@@H]([C@H](C)CCOC(=O)N4CCC(C)(CO)CC4)CC[C@@H]23)[C@@]2(C)CC[C@@H](O)C[C@@H]12 [Example 213]	< 0.1 µM	460%
CC[C@H]1[C@@H](O)[C@@H]2[C@H](CC[C@]3(C)[C@@H]([C@H](C)CCOC(=O)NCCc4ccccn4)CC[C@@H]23)[C@@]2(C)CC[C@@H](O)C[C@@H]12 [Example 186]	0.1 to 1 µM	373%
CC[C@H]1[C@@H](O)[C@@H]2[C@H](CC[C@]3(C)[C@@H]([C@H](C)CCOC(=O)NC4CCC4)CC[C@@H]23)[C@@]2(C)CC[C@@H](O)C[C@@H]12 [Example 133]	< 0.1 µM	283%
CC[C@H]1[C@@H](O)[C@@H]2[C@H](CC[C@]3(C)[C@@H]([C@H](C)COC(=O)NC4CC4)CC[C@@H]23)[C@@]2(C)CC[C@@H](O)C[C@@H]12 [Example 198]	1 to 10 µM	139%
CC[C@H]1[C@@H](O)[C@@H]2[C@H](CC[C@]3(C)[C@@H]([C@H](C)CCOC(=O)N4CCC(CO)CC4)CC[C@@H]23)[C@@]2(C)CC[C@@H](O)C[C@@H]12 [Example 202]	0.1 to 1 µM	393%
CC[C@H]1[C@@H](O)[C@@H]2[C@H](CC[C@]3(C)[C@@H]([C@H](C)COC(=O)NS(=O)(=O)c4ccc(N5CCC(F)(F)CC5)cc4)CC[C@@H]23)[C@@]2(C)CC[C@@H](O)C[C@@H]12 [Example 21]	< 0.1 µM	225%
CC[C@H]1[C@@H](O)[C@@H]2[C@H](CC[C@]3(C)[C@@H]([C@H](C)CCOC(=O)N4CCC(CO)(CCl)CC4)CC[C@@H]23)[C@@]2(C)CC[C@@H](O)C[C@@H]12 [Example 183]	< 0.1 µM	451%
CC[C@H]1[C@@H](O)[C@@H]2[C@H](CC[C@]3(C)[C@@H]([C@H](C)CCOC(=O)NC4CCCC4O)CC[C@@H]23)[C@@]2(C)CC[C@@H](O)C[C@@H]12 (stereo partly drawn) [Example 195]	< 0.1 µM	288%
CC[C@H]1[C@@H](O)[C@@H]2[C@H](CC[C@]3(C)[C@@H]([C@H](C)CCOC(=O)NC4CC4)CC[C@@H]23)[C@@]2(C)CC[C@@H](O)C[C@@H]12 [Example 123]	< 0.1 µM	379%
CC[C@H]1[C@@H](O)[C@@H]2[C@H](CC[C@]3(C)[C@@H]([C@H](C)COC(=O)NS(=O)(=O)c4ccc(-n5cnnn5)nc4)CC[C@@H]23)[C@@]2(C)CC[C@@H](O)C[C@@H]12 [Example 44-d]	0.1 to 1 µM	195%
CC[C@H]1[C@@H](O)[C@@H]2[C@H](CC[C@]3(C)[C@@H]([C@H](C)CCCOC(=O)N(CC)CC)CC[C@@H]23)[C@@]2(C)CC[C@@H](O)C[C@@H]12 [Example 132]	1 to 10 µM	205%
